Reference: US11702400B2, “Salt types, crystal forms, and preparation methods for benzopyrazole compounds as RHO kinase inhibitors” (MEDSHINE DISCOVERY INC., priority 2019, dated 2023)

Experiments:
[1] = Pharmacokinetic study of the crystal form A of the compound of formula (II-1) in SD rats; format: in vivo
Protocol: Experimental Purpose: To Study the Pharmacokinetics of the Compounds in SD Rats
Experimental Materials: SD Rats (12, Half Male and Half Female)
Experimental procedure: The pharmacokinetic characteristics of the compounds were tested in rodents after intravenous (IV) and oral (PO) administration using standard protocols. The candidate compounds were prepared into 0.5 mg/mL and 1 mg/mL clarified solutions and administrated to rats for single intravenous injection and oral administration. The solvent for both intravenous and oral administration was 5% DMSO/95% (10% hydroxypropyl β-cyclodextrin) aqueous solution. 12 SD rats were used in this project, and 6 rats (half male and half female) were administered intravenously at a dose of 1 mg/kg and plasma samples were collected at 0.0833, 0.25, 0.5, 1, 2, 4, 8, 12, and 24 h after administration, and the other 6 rats (half male and half female) were administered orally by gavage at a dose of 10 mg/kg and plasma samples were collected at 0.25, 0.5, 1, 2, 4, 8, 12 and 24 h after administration. 15 μL of plasma sample was added to a 96-well plate, and 300 μL of internal standard working solution (MeOH (containing 1.00 ng/mL Verapamil and 0.1% formic acid (FA)): ACN (v:v, 50:50) solution) was added to precipitate the proteins, the 96-well plate was shaken for 15 min, followed by centrifugation at 4° C., 3220 g for 15 min. 150 μL of supernatant was placed in a new 96-well plate with 150 μL of aqueous solution containing 0.1% formic acid (FA) and shaken for 10 min, and then centrifuged at 4° C., 3220 g for 5 min. The samples were directly injected, and the plasma drug concentration was quantitatively analyzed by LC-MS/MS analysis method, and pharmacokinetic parameters were calculated, such as peak concentration (Cmax), clearance rate (CL), half-life (T1/2), […] (Vdss), area under the drug-time curve (AUC0-last), bioavailability (F), etc.

[2] = Accelerated stability test of the crystal form A of the compound of formula (II-1); format: physicochemical; details: long-term placement conditions

COc1cccc(C(CN)NC(=O)c2cc(-c3ccc4[nH]nc(C)c4c3)ccn2)c1.Cl.Cl (centres unmarked)
Clearance rate CL ([1]; SD rats, IV 1 mg/kg): 22.4 mL/min/kg | Half-life T1/2 (IV) ([1]; SD rats, IV 1 mg/kg): 4.93 h | Tissue distribution Vdss ([1]; SD rats, IV 1 mg/kg): 7.39 L/kg | Bioavailability F ([1]; SD rats, IV 1 mg/kg, PO 10 mg/kg): 17.8% | Area under drug-time curve AUC0-last PO ([1]; SD rats, PO 10 mg/kg): 3.69 µM·h | Cmax ([1]; SD rats, half male and half female, PO 10 mg/kg, read-out: Peak concentration Cmax): 519 nM | pharmacokinetic properties (conclusion in words) ([1]; rats): good pharmacokinetic properties | stability in accelerated test (conclusion in words) [2]: stable
